In US6858591B2, “Antibiotic AA 896 analogs” (Wyeth Holdings Corporation, priority 2001, dated 2005):
≈ marks a conversion by molar mass, not a printed value. Read-outs that look alike come from different tables or passages of the source.

What was measured:
Test in all cases: In vitro MIC, broth dilution
Assay type in all cases: cell-based
[1] = test system: E. coli GC 2203; conditions: Escherichia coli, GC2203
[2] = test system: K. pneumoniae GC 4534; conditions: Klebsiella pneumoniae, GC4534
[3] = test system: E. coli GC 3226; conditions: Escherichia coli, GC3226
[4] = test system: P. aeruginosa GC 4532; conditions: Pseudomonas aeruginosa, GC4532
[5] = test system: M. morganii GC 4531; conditions: Morganella morganii, GC4531
[6] = test system: E. cloacae GC 3783; conditions: Enterobacter cloacae, GC3783
[7] = test system: C. albicans GC 3066; conditions: Candida albicans, GC3066
[8] = test system: E. coli GC 4560; conditions: Escherichia coli, GC4560
[9] = test system: S. aureus GC 2216; conditions: Staphylococcus aureus, GC2216
Method in brief: (§1)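 Broth dilution per NCCLS M7-A recommendations in Mueller-Hinton II medium, inoculum 5×10^5 CFU/ml, antibiotic range 64-0.06 μg/ml. Plates incubated 18 hours at 35° C in ambient air; MIC taken as lowest concentration inhibiting growth.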

[10] = test system: CNS GC 4547
Method in brief: as §1

[11] = test system: E. faecalis GC 2242; conditions: Enterococcus faecalis, GC2242
Method in brief: as §1

[12] = test system: CNS GC 4538
Method in brief: as §1

[13] = test system: S. aureus GC 1131; conditions: Staphylococcus aureus, GC1131
Method in brief: as §1

[14] = test system: E. faecalis GC 4555; conditions: Enterococcus faecalis, GC4555
Method in brief: as §1

[15] = test system: E. faecalis GC 842; conditions: Enterococcus faecalis, GC842
Method in brief: as §1

[16] = test system: CNS GC 4537
Method in brief: as §1

[17] = test system: S. aureus GC 4536; conditions: Staphylococcus aureus, GC4536
Method in brief: as §1

[18] = test system: S. marcescens GC 4077; conditions: Serratia marcescens, GC4077
[19] = test system: P. aeruginosa GC 2214; conditions: Pseudomonas aeruginosa, GC2214
[20] = test system: E. coli GC 4559; conditions: Escherichia coli, GC4559
[21] = K. pneumoniae GC 4534, read-out: MIC
[22] = P. aeruginosa GC 4532, read-out: MIC
[23] = M. morganii GC 4531, read-out: MIC
[24] = E. cloacae GC 3783, read-out: MIC
[25] = C. albicans GC 3066, read-out: MIC
[26] = S. aureus GC 2216, read-out: MIC
[27] = E. faecalis GC 2242, read-out: MIC
[28] = S. aureus GC 1131, read-out: MIC
[29] = E. faecalis GC 4555, read-out: MIC
[30] = E. faecalis GC 842, read-out: MIC
[31] = S. aureus GC 4536, read-out: MIC
[32] = S. marcescens GC 4077, read-out: MIC
[33] = P. aeruginosa GC 2214, read-out: MIC

SMILES	MIC ([1]; E. coli GC 2203, read-out: MIC) [µg/mL]	MIC [2, 21] [µg/mL]	MIC ([3]; E. coli GC 3226, read-out: MIC) [µg/mL]	MIC [4, 22] [µg/mL]	MIC [5, 23] [µg/mL]	MIC [6, 24] [µg/mL]	MIC [7, 25] [µg/mL]	MIC ([8]; E. coli GC 4560, read-out: MIC) [µg/mL]	MIC [9, 26] [µg/mL]	MIC ([10]; CNS GC 4547, read-out: MIC) [µg/mL]	MIC [11, 27] [µg/mL]	MIC ([12]; CNS GC 4538, read-out: MIC) [µg/mL]	MIC [13, 28] [µg/mL]	MIC [14, 29] [µg/mL]	MIC [15, 30] [µg/mL]	MIC ([16]; CNS GC 4537, read-out: MIC) [µg/mL]	MIC [17, 31] [µg/mL]	MIC [18, 32] [µg/mL]	MIC [19, 33] [µg/mL]	MIC ([20]; E. coli GC 4559, read-out: MIC) [µg/mL]	further results
COc1ccc(Cn2c(=O)ccn([C@@H]3OC([C@H](O)[C@H](NCCCNC(=O)[C@@H](NC(=O)OCc4ccccc4)[C@H](C)O)C(=O)OC(C)(C)C)[C@@H](O[Si](C)(C)C(C)(C)C)[C@H]3O[Si](C)(C)C(C)(C)C)c2=O)cc1 (stereo partly drawn) [Example 10, tert-Butyl (5S,12S)-12-[(R)-[(3R,4R,5R)-3,4-bis{[tert-butyl(dimethyl)silyl]oxy}-5-(3-(4-methoxybenzyl)-2,4-dioxo-3,4-dihydro-1(2H)-pyrimidinyl)tetrahydro-2-furanyl](hydroxy)methyl]-5-[(1S)-1-hydroxyethyl]-3,6-dioxo-1-phenyl-2-oxa-4,7,11-triazatridecan-13-oate]	–	–	–	–	–	–	–	–	–	–	–	–	–	–	–	–	–	–	–	–	MIC [1]: > 128 µg/mL; MIC [2]: > 128 µg/mL; MIC [3]: > 128 µg/mL; MIC [4]: > 128 µg/mL; MIC [5]: > 128 µg/mL; MIC [6]: > 128 µg/mL; MIC [7]: 128 µg/mL (≈ 126 µM); MIC [8]: > 128 µg/mL; MIC [9]: > 128 µg/mL; MIC [10]: > 128 µg/mL; MIC [11]: 128 µg/mL (≈ 126 µM); MIC [12]: > 128 µg/mL; MIC [13]: > 128 µg/mL; MIC [14]: > 128 µg/mL; MIC [15]: > 128 µg/mL; MIC [16]: > 128 µg/mL; MIC [17]: > 128 µg/mL; MIC [18]: > 128 µg/mL; MIC [19]: > 128 µg/mL; MIC [20]: > 128 µg/mL
COc1ccc(Cn2c(=O)ccn([C@@H]3OC([C@H](O)[C@H](NCCCNC(=O)[C@@H](N)[C@H](C)O)C(=O)OC(C)(C)C)[C@@H](O[Si](C)(C)C(C)(C)C)[C@H]3O[Si](C)(C)C(C)(C)C)c2=O)cc1 (stereo partly drawn) [Example 11, tert-Butyl (2S,3R)-2-[(3-{[(2S,3S)-2-amino-3-hydroxybutanoyl]amino}propyl)amino]-3-[(3R,4R,5R)-3,4-bis{[tert-butyl(dimethyl)silyl]oxy}-5-(3-(4-methoxybenzyl)-2,4-dioxo-3,4-dihydro-1(2H)-pyrimidinyl)tetrahydro-2-furanyl]-3-hydroxypropanoate]	> 128	> 128	> 128	> 128	> 128	> 128	> 128	> 128	4 (≈ 4.54 µM)	8 (≈ 9.09 µM)	8 (≈ 9.09 µM)	4 (≈ 4.54 µM)	8 (≈ 9.09 µM)	4 (≈ 4.54 µM)	4 (≈ 4.54 µM)	4 (≈ 4.54 µM)	4 (≈ 4.54 µM)	> 128	128 (≈ 145 µM)	> 128	–
COc1ccc(Cn2c(=O)ccn([C@@H]3OC([C@H](O)[C@H](NCCCNC(=O)[C@H](Cc4ccccc4)NC(=O)OCc4ccccc4)C(=O)OC(C)(C)C)[C@@H](O[Si](C)(C)C(C)(C)C)[C@H]3O[Si](C)(C)C(C)(C)C)c2=O)cc1 (stereo partly drawn) [Example 12, tert-Butyl (5S,12S)-5-benzyl-12-[(R)-[(3R,4R,5R)-3,4-bis{[tertbutyl(dimethyl)silyl]oxy}-5-(3-(4-methoxybenzyl)-2,4-dioxo-3,4-dihydro-1(2H)-pyrimidinyl)tetrahydro-2-furanyl](hydroxy)methyl]-3,6-dioxo-1-phenyl-2-oxa-4,7,11-triazatridecan-13-oate]	–	–	–	–	–	–	–	–	–	–	–	–	–	–	–	–	–	–	–	–	MIC [1]: > 128 µg/mL; MIC [2]: > 128 µg/mL; MIC [3]: > 128 µg/mL; MIC [4]: 128 µg/mL (≈ 121 µM); MIC [5]: 128 µg/mL (≈ 121 µM); MIC [6]: 128 µg/mL (≈ 121 µM); MIC [7]: 128 µg/mL (≈ 121 µM); MIC [8]: 128 µg/mL (≈ 121 µM); MIC [9]: > 128 µg/mL; MIC [10]: 128 µg/mL (≈ 121 µM); MIC [11]: 128 µg/mL (≈ 121 µM); MIC [12]: > 128 µg/mL; MIC [13]: > 128 µg/mL; MIC [14]: 128 µg/mL (≈ 121 µM); MIC [15]: 128 µg/mL (≈ 121 µM); MIC [16]: > 128 µg/mL; MIC [17]: > 128 µg/mL; MIC [18]: 128 µg/mL (≈ 121 µM); MIC [19]: 128 µg/mL (≈ 121 µM); MIC [20]: > 128 µg/mL
COc1ccc(Cn2c(=O)ccn([C@@H]3OC([C@H](O)[C@H](NCCCNC(=O)[C@@H](N)Cc4ccccc4)C(=O)OC(C)(C)C)[C@@H](O[Si](C)(C)C(C)(C)C)[C@H]3O[Si](C)(C)C(C)(C)C)c2=O)cc1 (stereo partly drawn) [Example 13, tert-Butyl (2S,3R)-2-[(3-{[(2S)-2-amino-3-phenylpropanoyl]amino}propyl)amino]-3-[(3R,4R,5R)-3,4-bis{[tert-butyl(dimethyl)silyl]oxy}-5-(3-(4-methoxybenzyl)-2,4-dioxo-3,4-dihydro-1(2H)-pyrimidinyl)tetrahydro-2-furanyl]-3-hydroxypropanoate]	> 128	> 128	> 128	> 128	> 128	> 128	> 128	> 128	> 128	> 128	16 (≈ 17.3 µM)	> 128	> 128	> 128	128 (≈ 138 µM)	> 128	> 128	> 128	> 128	> 128	–
COc1ccc(Cn2c(=O)ccn([C@@H]3OC([C@H](O)[C@H](NCCCNC(=O)[C@H](C)NC(=O)OCc4ccccc4)C(=O)OC(C)(C)C)[C@@H](O[Si](C)(C)C(C)(C)C)[C@H]3O[Si](C)(C)C(C)(C)C)c2=O)cc1 (stereo partly drawn) [Example 14, tert-Butyl (5S,12S)-12-[(R)-[(3R,4R,5R)-3,4-bis{[tert-butyl(dimethyl)silyl]oxy}-5-(3-(4-methoxybenzyl)-2,4-dioxo-3,4-dihydro-1(2H)-pyrimidinyl)tetrahydro-2-furanyl](hydroxy)methyl]-5-methyl-3,6-dioxo-1-phenyl-2-oxa-4,7,11-triazatridecan-13-oate]	> 128	> 128	> 128	128 (≈ 130 µM)	128 (≈ 130 µM)	> 128	128 (≈ 130 µM)	128 (≈ 130 µM)	> 128	128 (≈ 130 µM)	128 (≈ 130 µM)	> 128	> 128	128 (≈ 130 µM)	> 128	> 128	> 128	> 128	128 (≈ 130 µM)	> 128	–
